Patent publication US20240335444A1, “MODULATORS OF BCL6 PROTEOLYSIS AND ASSOCIATED METHODS OF USE” (Arvinas Operations, Inc., priority 2023, published 2024)

Tests used:
DLBCL-derived cell lines = assay: Nine-day cell growth inhibition assay (CellTiter-Glo); format: cell-based; settings: GCB lines OCI-Ly1, OCI-Ly7, SU-DHL-4, SU-DHL-6 and ABC lines SU-DHL-2, OCI-Ly10; 9 days; top dose 30 nM; concentration dependent
Method: Antiproliferative effects of Compound A on DLBCL-derived cell lines were tested. Nine-day cell growth inhibition assays were conducted using GCB lines OCI-Ly1, OCI-Ly7, SU-DHL-4 and SU-DHL-6 (FIG. 3A), and ABC lines SU-DHL-2 and OCI-Ly10 (FIG. 3B) dosed with a 7-point 3-fold serial dilution of Compound A at a top dose of 30 nM. On days 3 and 6-7, samples were split to new 48-well plates for re-treatment, and 20% to a 96-well plate to measure cell viability using CellTiter-Glo (CTG). Split cells in the 48-well plates were retreated and cultured out to day 9, when 20% of each sample was analyzed by CTG. Dose response was plotted as a percentage of vehicle (DMSO) control (FIG. 3A and FIG. 3B). Graphs are representative of at least two independent proliferation assays per cell line.

SU-DHL-2 = assay: Tumor growth of DLBCL cell line derived xenograft model SU-DHL-2; format: in vivo, mice; settings: SU-DHL-2 xenograft, po 3, 10 or 30 mg/kg bid×27 or 30 mg/kg qd×27; dosing dependent
Method: (§1) Mice bearing subcutaneous tumors were orally (po) administered vehicle or Compound A at 3, 10, or 30 mg/kg bi-daily for 27 days (bid×27) or 30 mg/kg daily for 27 days (qd×27). Dosing began with tumors at an average of 180 mm^3. […] FIG. 9C depicts tumor lysate BCL6 protein levels 16-hours post-last dose analyzed by western blotting. Individual tumor BCL6 levels are shown in a scatter plot, mean is represented by the bar, determined by densitometry, normalized to GAPDH loading controls, and shown as a percentage of vehicle. Percent BCL6 degradation (%) relative to vehicle is shown above each arm. Statistical analyses were performed using 2-way ANOVA: p<0.0001 (****). Error bars represent standard error of the mean (±SEM).

LY2214 = assay: PDX model of DLBCL, high-grade B-cell lymphoma (HGBCL, LY2214); format: in vivo, NOD/SCID or BALB/c Nude Mice; settings: 30 mg/kg PO QD×21, compared to vehicle
Method: (§2) HuPrime® Lymphoma Xenograft Models in NOD/SCID or BALB/c Nude Mice, 4/group, were dosed orally (per os, PO) daily for 21 days (QD×21) and tumor measurements were acquired twice per week. […] Data points represent the mean per group and error bars the standard error of the mean.

LY6934 = assay: PDX model of DLBCL, ABC/GCB (LY6934); format: in vivo, NOD/SCID or BALB/c Nude Mice; settings: 30 mg/kg PO QD×21, compared to vehicle
Method: as §2

LY12962 = assay: PDX model of NHL NOS (LY12962); format: in vivo, NOD/SCID or BALB/c Nude Mice; settings: 30 mg/kg PO QD×21
Method: as §2

BCL6 protein [1] = biological target: T1, BCL6 protein (Homo sapiens, UniProt P41182); assay: Tumor lysate BCL6 protein levels in OCI-Ly1 xenograft tumor tissue (western blotting, densitometry); format: in vivo, mice; set-up: from tissue; host or cells: subcutaneous xenograft tumors of OCI-Ly1, OCI-Ly7, SU-DHL-2 or OCI-Ly10 cells in mice
Method: Tumor lysate BCL6 protein levels in OCI-Ly1 cell line xenograft tumor tissue was measured following a treatment time-course with Compound A. A single dose of Compound A was orally administered in a vehicle of 40% hydroxypropyl-b-cyclodextrin in pH 3.0 citrate buffer when tumors reached 200-400 mm^3. Tumors were harvested at the indicated timepoints. Tumor tissue lysates were analyzed using western immunoblotting procedures and densitometry. BCL6 levels are normalized to a GAPDH loading control and presented as a percentage (%) of the average of BCL6 levels in the vehicle control group. Percent BCL6 degradation (%) relative to vehicle is shown above each arm. Cells (1×10^7 cells in 50% matrigel+50% RMPI-1640 (phenol red-free)/100 μl/mouse) were implanted on the right flank subcutaneously.
Mice bearing subcutaneous tumors were orally (po) administered vehicle or Compound A at 1, 3, or 10 mg/kg bi-daily for 23 days (bid×23). Dosing began with tumors at an average of 170 mm^3. […] FIG. 7C depicts tumor lysate BCL6 protein levels 16-hours post-last dose analyzed by western blotting. Individual tumor BCL6 levels are shown in a scatter plot, mean is represented by the bar, determined by densitometry, normalized to GAPDH loading controls, and shown as a percentage of vehicle. Percent BCL6 degradation (%) relative to vehicle is shown above each arm. Statistical analyses were performed using 2-way ANOVA: p<0.0001 (****). Error bars represent standard error of the mean (±SEM).

BCL6 protein [2] = biological target: T1, BCL6 protein; assay: Tumor lysate BCL6 protein levels in SU-DHL-2 xenograft (western blotting); format: in vivo, mice; set-up: from tissue; host or cells: subcutaneous xenograft tumors of OCI-Ly1, OCI-Ly7, SU-DHL-2 or OCI-Ly10 cells in mice; settings: 16-hours post-last dose
Method: as §1

BCL6 protein [3] = biological target: T1, BCL6 protein; assay: BCL6 protein degradation in DLBCL cell lines measured by ELISA; format: cell-based; set-up: Degradation of BCL6 protein in DLBCL cell lines were measured by ELISA; endogenous in cells; host or cells: OCI-Ly1, Farage, SU-DHL-4, SU-DHL-6, OCI-Ly7, SU-DHL-2, OCI-Ly10

## CNC(=O)COc1cc2cc(Nc3nc(N4CCC(O[C@H]5C[C@H](N6CCC(c7ccc8c(c7F)CN(C7CCC(=O)NC7=O)C8=O)CC6)C5)CC4)ncc3Cl)ccc2n(C(C)C)c1=O (stereo partly drawn) [Compound A, 2-({6-[(5-chloro-2-{4-[(1r,3r)-3-{4-[2-(2,6-dioxopiperidin-3-yl)-4-fluoro-1-oxo-2,3-dihydro-1H-isoindol-5-yl]piperidin-1-yl}cyclobutoxy]piperidin-1-yl}pyrimidin-4-yl)amino]-2-oxo-1-(propan-2-yl)-1,2-dihydroquinolin-3-yl}oxy)-N-methylacetamide]
DLBCL-derived cell lines
  DLBCL cell growth (antiproliferative effect): significant decrease on DLBCL cells growth
SU-DHL-2
  Tumor growth: inhibits the tumor growth
LY2214
  Change in mean tumor volume: tumor regression
LY6934
  Change in mean tumor volume: tumor regression
LY12962
  Change in mean tumor volume: tumor regressions
BCL6 protein [1]; bid×23, 16-hours post-last dose (FIG. 7C)
  Tumor lysate BCL6 protein level: dose-dependent degradation of BCL6 protein
BCL6 protein [1]; single oral dose (FIG. 5)
  Time BCL6 protein was kept down: up to 36 hours
BCL6 protein [1]; single oral dose, time-course (FIG. 5)
  Tumor lysate BCL6 protein level: degraded BCL6 protein rapidly
BCL6 protein [2]
  Tumor lysate BCL6 protein level: dose-dependent degradation of BCL6 protein
BCL6 protein [3]; ABC DLBCL cell lines SU-DHL-2, OCI-Ly10, 24 hours (FIG. 2C)
  BCL6 protein degradation: potent BCL6 protein degradation
BCL6 protein [3]; GCB DLBCL cell lines Farage, SU-DHL-4, SU-DHL-6, OCI-Ly7, 24 hours (FIG. 2B)
  BCL6 protein degradation: potent BCL6 protein degradation
BCL6 protein [3]; OCI-Ly1 cell line, 24-hours treatment, compared to E3-binding deficient analogue (FIG. 2A)
  BCL6 protein degradation: potent BCL6 protein degradation
